Laboratory results reported in patent US9827210B2, “Treatment or prophylaxis of a neurological or neuropsychiatric disorders via ocular administration” (Phovitreal Pty Ltd, priority 2007, dated 2017).

Legend:
[1] = tested on: rats with experimental Parkinson's disease; assay: 6-hydroxy dopamine model of Parkinson's disease in rats, intraocular or intravitreal injection; type: in vivo; settings: bilateral 6-hydroxy dopamine lesion, 2 μl of 10 mMol solution into vitreous humor of both eyes on days 2, 3 and 4 after surgery, versus PD+IOVeh (70% DMSO)
Text: At appropriate concentrations, the neurotoxin 6-hydroxy dopamine produces specific and permanent depletion of dopamine in the brain and more specifically of the nigro-striatal dopamine system (Ungerstedt, U. et al, Adv. Neurol., 5, 421, 1974; Willis, G. L. & Armstrong, S. A., Brain Res. Rev., 27, 177, 1998). Intracranial injections of 6-hydroxy dopamine were used to produce a model of Parkinson's disease (and schizophrenia). Bilateral lesions produced a vegetative, akinetic syndrome in which there is a lack of voluntary movement, hunched posture and body weight loss accompanied by a loss in the ability to eat and drink.
b) After preparatory surgery that permitted access to the brain, rats were induced with bilateral experimental Parkinson's disease by injection of the neurotoxin 6-hydroxy dopamine into the nigro-striatal dopamine system. On days 2, 3 and 4 after surgery a single 2 μl intraocular or intravitreal injection was made into the vitreous humor of both eyes. The solution injected was either a 10 mMol solution of ML-23 (PD+IODrug) or a 10 mMol solution of vehicle (PD+IOVeh). The vehicle used was 70% DMSO. For comparison, a control group was not made Parkinsonian but received intraocular or intravitreal injection of vehicle in the same volume as the experimental groups (C+IOVeh). […]

[2] = tested on: Sprague-Dawley rats pre-treated with dl-amphetamine; assay: dl-amphetamine-induced psychosis in rats, intravitreal injection, motor tests; type: in vivo; settings: 2 μl of 12.5 μg/μl into vitreous humor after 5 days of 1 mg/kg dl-amphetamine i.p.; measured three hours after injection; versus 80% DMSO vehicle; FIG. 4
Experimental: Lesions to the brain dopamine systems in mammalian brain serve as models for various neuropsychiatric disorders. When drugs such as amphetamines are administered to animals for a certain period of time psychotic symptoms develop such as increased activity, agitation and decreased latency time to perform various motor tasks. In other words, opposite to those symptoms seen in Parkinson's disease, the time to perform various motor tasks decreased: they perform them quicker.
At appropriate concentrations, the addictive drug, dl-amphetamine (1 mg/kg) was injected intraperitoneally to produce psychosis and addiction in Sprague-Dawley rats. After 5 days of such treatment each animal was tested for their level of activity in a computerized activity chamber and on three motor tests. On the day after completion of the injections half the animals received a 2 μl injection of haloperidol (12.5 μg/μl) into the vitreous humor, just in front of the retina. The other half of the animals received a 2 μl injection of vehicle (80% DMSO solution) into the vitreous humor. The effects of such injections on various parameters of movement, such as the latency to ambulate and the latency to retract a front paw, were measured three hours after animals received their intravitreal injection. […]

SMILES	horizontal movement ([1]; FIG. 1)	ability to retract/move the front limb ([1]; FIG. 2)	latency to ambulate from a prescribed area [2]	latency to retract an elevated limb [2]
COc1ccc2[nH]cc(CCNc3ccc([N+](=O)[O-])cc3[N+](=O)[O-])c2c1 [ML-23]	better horizontal movement	better performance on the ability to move the front limb	–	–
O=C(CCCN1CCC(O)(c2ccc(Cl)cc2)CC1)c1ccc(F)cc1 [haloperidol]	–	–	increased	increased
